Numbers after ± are expanded uncertainties.
Settings: Liquid, Closed cell (Static) method

O [water]
Settings	vapor or sublimation pressure [kPa]
313.16 K	7.46 ± 2.5
323.16 K	12.54 ± 2.6
333.16 K	20.24 ± 2.8
343.16 K	31.54 ± 3.2
353.16 K	48.25 ± 3.8
363.16 K	70.49 ± 4.7
373.16 K	101.98 ± 5.3

— the NIST ThermoML archive (doi:10.1021/acs.jced.8b01078)
